Source: patent US10745363B2 (NORATECH PHARMACEUTICALS, INC., priority 2016, dated 2020)
Structures can show the parent of a compound that is named as a salt.

Assays:
[1] = cited from earlier work
[2] = Determination of hygroscopicity (water absorption in open weighing bottle, artificial climate chamber); assay type: physicochemical; conditions: 25±1° C., relative humidity 43.5±2%; for Water absorption, %: open weighing bottle, disodium salt
Protocol: 1. Take a dry stuffed glass weighing bottle (outer diameter 50 mm, height 15 mm) in the artificial climate chamber (set temperature is 25±1° C., relative humidity is 43.5±2%) and weight it (m1).
2. Take the appropriate amount of the crystalline form in the present invention, and place it in the abovementioned weighing bottle and lay it inside the weighing bottle. The thickness of the test sample is generally about 1 mm. Weight the sample (m2).
3. Uncover the weighing bottle and place it with the bottle cap under constant temperature and humidity (set temperature is 25±1° C., relative humidity is 43.5±2%).
4. Put the cap back on the weighing bottle before weighing, and then weight it (m3). The water absorption percentage for each time point is calculated by the formula=(m3−m2)/(m2−m1)×100%.

## CCCCC(=O)N(Cc1ccc(-c2ccccc2-c2nnn[nH]2)cc1)[C@H](C(=O)O)C(C)C [Valsartan sodium salt]
[1]; background statement
  hygroscopicity (in words): hygroscopic

## CCCCC(=O)N(Cc1ccc(-c2ccccc2-c2nnn[nH]2)cc1)[C@H](C(=O)O)C(C)C [valsartan disodium salt]
[1]; equilibrated in air, 5.36 mol H2O by elemental analysis (CN01813039.9)
  hygroscopicity: up to 20%

## CCCCC(=O)N(Cc1ccc(-c2ccccc2-c2nnn[nH]2)cc1)[C@H](C(=O)O)C(C)C [Crystalline form G, valsartan disodium salt]
[2]; 2 h, listed as G
  Water absorption, %: 0.7%
[2]; 4 h, listed as G
  Water absorption, %: 1.3%
[2]; 24 h, listed as G
  Water absorption, %: 1.5%

## CCCCC(=O)N(Cc1ccc(-c2ccccc2-c2nnn[nH]2)cc1)[C@H](C(=O)O)C(C)C [Crystalline form E, valsartan disodium salt]
[2]; 2 h, listed as E
  Water absorption, %: 2.1%
[2]; 4 h, listed as E
  Water absorption, %: 2.9%
[2]; 24 h, listed as E
  Water absorption, %: 3.6%

## CCCCC(=O)N(Cc1ccc(-c2ccccc2-c2nnn[nH]2)cc1)[C@H](C(=O)O)C(C)C [Crystalline form D, valsartan disodium salt]
[2]; 2 h, listed as D
  Water absorption, %: 1.3%
[2]; 4 h, listed as D
  Water absorption, %: 1.9%
[2]; 24 h, listed as D
  Water absorption, %: 2.7%

## CCCCC(=O)N(Cc1ccc(-c2ccccc2-c2nnn[nH]2)cc1)[C@H](C(=O)O)C(C)C [Crystalline form H, valsartan disodium salt]
[2]; 2 h, listed as H
  Water absorption, %: 2.0%
[2]; 4 h, listed as H
  Water absorption, %: 2.8%
[2]; 24 h, listed as H
  Water absorption, %: 4.0%

## CCCCC(=O)N(Cc1ccc(-c2ccccc2-c2nnn[nH]2)cc1)[C@H](C(=O)O)C(C)C [Crystalline form F, valsartan disodium salt]
[2]; 2 h, listed as F
  Water absorption, %: 1.7%
[2]; 4 h, listed as F
  Water absorption, %: 2.2%
[2]; 24 h, listed as F
  Water absorption, %: 2.8%

## CCCCC(=O)N(Cc1ccc(-c2ccccc2-c2nnn[nH]2)cc1)[C@H](C(=O)O)C(C)C [Crystalline form A, valsartan disodium salt]
[2]; 2 h, listed as A
  Water absorption, %: 1.6%
[2]; 3 hours, open container
  water absorption: 2.6%
[2]; 4 h, listed as A
  Water absorption, %: 2.0%
[2]; 24 h, listed as A
  Water absorption, %: 2.4%

## CCCCC(=O)N(Cc1ccc(-c2ccccc2-c2nnn[nH]2)cc1)[C@H](C(=O)O)C(C)C [Crystalline form B, valsartan disodium salt]
[2]; 2 h, listed as B
  Water absorption, %: 1.9%
[2]; 4 h, listed as B
  Water absorption, %: 2.3%
[2]; 24 h, listed as B
  Water absorption, %: 3.0%
